From patent US20230293629A1, “METHODS FOR ATTENUATING RELEASE OF INFLAMMATORY MEDIATORS AND PEPTIDES USEFUL THEREIN” (BIOMARCK PHARMACEUTICALS LTD., priority 2006, published 2023)
Where a SMILES comes first, the peptide text is derived from it. Where no end group is shown, it is not given here. [ ]: non-standard residue; d: D form. The star is where a group is joined. Myristoyl = CCCCCCCCCCCCCC(=O)*

Columns and labels:
[1] = system: U937 cells; assay: PMA-stimulated lysozyme secretion by U937 cells; type: cell-based, human; conditions: 50 μM test peptide, two hour incubation with 100 nM PMA; U937 cells
Protocol: (§1) Three types of human leukocyte cell lines, specifically the promyelocytic cell line HL-60 clone 15, the monocytic cell line U937, and the lymphocyte natural killer cell line NK-92 were purchased from American Type Culture Collection (ATCC; Rockville, MD). HL-60 clone 15 cells (ATCC CRL-1964) were maintained in medium consisting of RPMI 1640 with L-glutamine supplemented with 10% heat-inactivated fetal bovine serum (Gibco; Invitrogen Co., Carlsbad, CA), 50 IU/ml penicillin, 50 μg/mL streptomycin, and 25 mM HEPES buffer, pH 7.8, at 37° C. in an atmosphere containing 5% CO2. Final differentiation to an eosinophil-like phenotype was initiated by culturing cells at 5×10^5 cells/ml in the above medium containing 0.5 mM butyric acid (Sigma-Aldrich Co.) for 5 days as previously described (Tiffany H L, Li F, Rosenberg H F. Hyperglycosylation of eosinophil ribonucleases in a promyelocytic leukemia cell line and in differentiated peripheral blood progenitor cells. J Leukoc Biol 1995; 58:49-54; Tiffany H L, Alkhatib G, Combadiere C, Berger E A, Murphy P M. CC chemokine receptors 1 and 3 are differentially regulated by IL-5 during maturation of eosinophilic HL-60 cells. J Immunol 1998; 160:1385-1392). U937 cells (ATCC CRL-1593.2) were grown at 37° C. in an atmosphere of 5% CO2 in complete medium consisting of RPMI 1640 with L-glutamine supplemented with 10% FBS, 50 IU/ml penicillin, and 50 μg/mL streptomycin. NK-92 cells (ATCC CRL-2407) were maintained in alpha-MEM medium (Sigma-Aldrich Co.) supplemented with 20% FBS, 100 U/ml of interleukin-2 (IL-2) (Chemicon International, Inc., Temecula, CA), 5×10^−5 M of 2-mercaptoethanol, 50 IU/mL penicillin, and 50 μg/ml streptomycin at 37° C. in an atmosphere containing 5% CO2. Cell morphology was judged by assessment of Wright-Giemsa-stained cells. Viability of cells harvested for experiments was assessed by trypan blue exclusion and populations of cells with viability >95% were used.
(§2) HL-60 clone 15, U937, and NK-92 cells were washed and resuspended at 2.5×10^6 cells/ml in phenol red-free RPMI-1640 (Cellgro; Mediatech, Inc.) for all degranulation assays. Aliquots of cells in 15 ml tubes were preincubated with indicated concentrations of MANS, RNS, or a test peptide for 10 min at 37° C. The cells then were stimulated with PMA for up to 2 hr. A control reference (PMA control reference) was established for each cell type using HL-60 clone 15, U937, and NK-92 cells, respectively, which were washed and resuspended at 2.5×10^6 cells/ml in phenol red-free RPMI-1640 and stimulated with PMA but in the absence of MANS, RNS, or a test peptide for the same time periods. The reaction was terminated by placing tubes on ice and centrifuging cells at 400 g for 5 min at 4° C.
(§3) For measurements of released MPO from neutrophils and released lysozyme from U937 cells, we were able to quantify secretion by using as standards human MPO and egg white […], respectively. For released EPO from HL-60 clone 15 cells and for released granzyme from NK-92 cells, no standards were available to use for quantification. […] To measure intracellular EPO in HL-60 clone 15 cells and intracellular granzyme in NK-92 cells, appropriate aliquots of 0.1% triton X-100-lysed cells were taken for quantification of intracellular granule proteins as described below. All treatments were expressed as percentage of control to minimize variability between cultures.
Lysozyme secreted by U937 cells was measured using a spectrophotometric assay as described previously (Balboa M A, Saez Y, Balsinde J. Calcium-independent phospholipase A2 is required for lysozyme secretion in U937 promonocytes. J Immunol 2003; 170:5276-5280) with slight modification. Thus, 100 μL of sample was mixed with 100 μL of a Micrococcus lysodeikticus (Sigma-Aldrich Co.) suspension (0.3 mg/ml in 0.1 M sodium phosphate buffer, pH 7.0) in a 96-well microplate. The decrease in absorbance at 450 nm was measured at room temperature. […]

[2] = system: human neutrophils; assay: PMA-stimulated MPO release from isolated human neutrophils (TMB assay); type: cell-based; conditions: 100 μM test peptide, two hour incubation with 100 nM PMA; human neutrophils
Text: Human neutrophil isolation—These studies were approved by the human studies Institutional Review Board (IRB). Human neutrophils were isolated as previously described (see Takashi S, OkuboY, Horie S. Contribution of CD54 to human eosinophil and neutrophil superoxide production. J Appl Physiol 2001; 91:613-622) with slight modifications. Briefly, heparinized venous blood was obtained from normal healthy volunteers, diluted with RPMI-1640 (Cellgro; Mediatech, Inc., Herndon, VA) at a ratio of 1:1, layered onto a Histopaque (density, 1.077 g/ml; Sigma-Aldrich Co., St. Louis, MO) and centrifuged at 400 g for 20 min at 4° C. The supernatant and mononuclear cells at the interface were carefully removed, and erythrocytes in the sediment were lysed in chilled distilled water. Isolated granulocytes were washed twice with Hanks' balanced salts solution (HBSS) and resuspended in HBSS on ice.
Measurement of released neutrophil MPO activity—For measurement of MPO release, purified human neutrophils suspended in HBSS were aliquoted at 4×10^6 cells/ml in 15 ml tubes and preincubated with either 50 or 100 μM of MANS, RNS, or one of the peptides of invention for 10 min at 37° C. The cells then were stimulated with 100 nM phorbol 12-myristate 13-acetate (PMA) for up to 3 hrs. A control reference (PMA control reference) was established using purified human neutrophils suspended in HBSS aliquoted at 4×10^6 cells/ml in 15 mL tubes and stimulated with 100 nM phorbol 12-myristate 13-acetate (PMA) in the absence of a test peptide for the same time periods. The reaction was terminated by placing the tubes on ice and centrifugation at 400 g for 5 min at 4° C.
MPO activity in the cell supernatant was assayed using tetramethylbenzidine (TMB) based on a previously established technique (Abdel-Latif D, Steward M, Macdonald D L, Francis G A., Dinauer M C, Lacy P. Rac2 is critical for neutrophil primary granule exocytosis. Blood 2004; 104:832-839). Briefly, 100 μL of TMB substrate solution was added to 50 μL of cell supernatants or standard human MPO (EMD Biosciences, Inc., San Diego, CA) in a 96-well microplate followed by incubation at room temperature for 15 min. The reaction was terminated by addition of 50 μL of 1M […] and absorbance was read at 450 nm in a spectrophotometric microplate reader (VERSA max, Molecular Devices, Sunnyvale, CA).
The data presented in the table below represents 100 μM concentration of test peptides and a two hour incubation with 100 nM PMA.

[3] = system: HL-60 clone 15 cells; assay: PMA-stimulated EPO release from HL-60 clone 15 cells; type: cell-based, human; conditions: 50 μM test peptide, two hour incubation with 100 nM PMA; HL-60 clone 15 cells
Protocol: as §1, §2, §3
EPO activity released by HL-60 clone 15 cells was assayed using TMB according to a previously established technique (Lacy P, Mahmudi-Azer S, Bablitz B, Hagen S C, Velazquez J R, Man S F, Moqbel R. Rapid mobilization of intracellularly stored RANTES in response to interferon-gamma in human eosinophils. Blood 1999; 94:23-32). Thus, 100 μL of TMB substrate solution was added to 50 μL=microliters) of sample in a 96-well microplate and incubated at room temperature for 15 min (min=minutes). […]

[4] = Qualitative solubility of peptides in 0.5 N saline, pH 6.5
[5] = system: MARCKS phosphorylation in NHBE cells; assay: MARCKS phosphorylation in NHBE cells, radiolabeled immunoprecipitation assay; type: cell-based, human; conditions: 500 nM calphostin C + 100 nM PMA
Protocol: Radiolabeled Immunoprecipitation Assay—When labeling with [^32P]phosphate, cells were preincubated for 2 h in phosphate-free Dulbecco's modified Eagle's medium containing 0.2% bovine serum albumin and then labeled with 0.1 mCi/ml [^32P]orthophosphate (9000 Ci/mmol, PerkinElmer Life Sciences) for 2 h. For labeling with [^3H]myristic acid or 3H-amino acids, cells were incubated overnight in medium containing 50 μCi/ml [^3H]myristic acid (49 Ci/mmol, PerkinElmer Life Sciences) or 0.2 mCi/ml [^3H]leucine (159 Ci/mmol, PerkinElmer Life Sciences) plus 0.4 mCi/ml [^3H]proline (100 Ci/mmol, PerkinElmer Life Sciences). Following labeling, cells were exposed to stimulatory reagents for 5 min. When an inhibitor was used, cells were preincubated with the inhibitor for 15 min prior to stimulation. At the end of the treatments, cells were lysed in a buffer containing 50 mM Tris-HCl (pH 7.5), 150 mM NaCl, 1 mM EDTA, 10% glycerol, 1% Nonidet P-40, 1 mM phenylmethylsulfonyl fluoride, 1 mM benzamidine, 10 μg/ml pepstatin A, and 10 μg/ml leupeptin. Trichloroacetic acid precipitation and scintillation counting may determine the radiolabeling efficiency in each culture. Immunoprecipitation of MARCKS protein was carried out according to the method of Spizz and Blackshear using cell lysates containing equal counts/min. Spizz et al., J. Biol. Chem. 271, 553-562 (1996). Precipitated proteins were resolved by 8% SDS-polyacrylamide gel electrophoresis and visualized by autoradiography. Anti-human MARCKS antibody (2F12) and nonimmune control antibody (6F6) were used in this assay.
To assess MARCKS or MARCKS-associated protein complexes in different subcellular fractions, radiolabeled and treated cells were scraped into a homogenization buffer (50 mM Tris-HCl (pH 7.5), 10 mM NaCl, 1 mM EDTA, 1 mM phenylmethylsulfonyl fluoride, 1 mM benzamidine, 10 μg/ml pepstatin A, 10 μg/ml leupeptin) and then disrupted by nitrogen cavitation (800 pounds/square inch for 20 min at 4° C.). Cell lysates were centrifuged at 600×g for 10 min at 4° C. to remove nuclei and unbroken cells. Post-nuclear supernatants were separated into membrane and cytosol fractions by ultracentrifugation at 400,000×g for 30 min at 4° C. The membrane pellet was solubilized in the lysis buffer by sonication. Immunoprecipitation was then carried out as described above.

Compound | % Inhibition Lysozyme [1] [%] | % Inhibition MPO [2] [%] | % Inhibition EPO [3] [%] | solubility [4] [mg/mL] | effect on PMA-induced MARCKS phosphorylation [5]
Ac-GAQFSKTAAKGE-NH2 [Ac-GAQFSKTAAKGE-NH2, GAQFSKTAAKGE] | 38.6 | 26.5 | 24.7 | > 60 | –
calphostin C | – | – | – | – | attenuated
CCCCCCCCCCCCCC(=O)NCC(=O)N[C@@H](C)C(=O)N[C@@H](CCC(N)=O)C(=O)N[C@@H](Cc1ccccc1)C(=O)N[C@@H](CO)C(=O)N[C@@H](CCCCN)C(=O)N[C@H](C(=O)N[C@@H](CCCCN)C(=O)N[C@@H](C)C(=O)N[C@@H](CCCCN)C(=O)NCC(=O)N[C@@H](CCC(=O)O)C(=O)O)[C@@H](C)O [MA-GAQFSKTKAKGE, GAQFSKTKAKGE] (Myristoyl-GAQFSKTKAKGE-OH; C-terminus assumed) | – | 65.2 | – | > 3 | –
CC(=O)NCC(=O)N[C@H](C)C(=O)N[C@H](CCC(N)=O)C(=O)N[C@H](Cc1ccccc1)C(=O)N[C@H](CO)C(=O)N[C@H](CCCCN)C(=O)N[C@@H](C(=O)N[C@H](C)C(=O)N[C@H](C)C(=O)N[C@H](CCCCN)C(=O)O)[C@H](C)O [Ac-GAQFSKTAAK (all d), GAQFSKTAAK (all d)] (Ac-G[dA][dQ][dF][dS][dK][dT][dA][dA][dK]-OH; C-terminus assumed) | 8.9 | 40.0 | 26.9 | > 100 | –
CCCCCCCCCCCCCC(=O)NCC(=O)N[C@@H](C)C(=O)N[C@@H](CCC(N)=O)C(=O)N[C@@H](Cc1ccccc1)C(=O)N[C@@H](CO)C(=O)N[C@@H](CCCCN)C(=O)N[C@H](C(=O)N[C@@H](C)C(=O)N[C@@H](C)C(=O)N[C@@H](CCCCN)C(=O)NCC(=O)N[C@@H](CCC(=O)O)C(=O)O)[C@@H](C)O [MA-GAQFSKTAAKGE, GAQFSKTAAKGE] (Myristoyl-GAQFSKTAAKGE-OH; C-terminus assumed) | 85.2 | 43.2 | 25.2 | > 2 | –
H-GAQFSKTAAKGE [peptide 79, GAQFSKTAAKGE] | – | 27.9 | – | – | –
